The numbers were not newly measured in patent US20240254438A1, “MULTI-REGIONAL HUMAN NEURAL CIRCUITS IN ASSEMBLOIDS DERIVED FROM PLURIPOTENT STEM CELLS” (The Board of Trustees of the Leland Stanford Junior …, priority 2021, published 2024), which cites them from elsewhere.

For data set [1], the target named is element-binding protein (CBP) (Homo sapiens, UniProt Q92793). Particulars: binds to element-binding protein (CBP).
The target in another data set is Smo heptahelical domain (Homo sapiens, UniProt Q99835).
The test system of a further data set is Wnt signaling. Particulars: TM3 cells.
For data set [2], the system named is PORCN. The settings on record: HEK293 cells, Wnt3A-mediated TCF luciferase.
Data set [3] deals with Wnt processing and secretion. The settings on record: cell-free assay.
The target of the next data set is T1, TNKS2 (Homo sapiens, UniProt Q9H2K2).
T1 sequence (Q9H2K2 1-1166): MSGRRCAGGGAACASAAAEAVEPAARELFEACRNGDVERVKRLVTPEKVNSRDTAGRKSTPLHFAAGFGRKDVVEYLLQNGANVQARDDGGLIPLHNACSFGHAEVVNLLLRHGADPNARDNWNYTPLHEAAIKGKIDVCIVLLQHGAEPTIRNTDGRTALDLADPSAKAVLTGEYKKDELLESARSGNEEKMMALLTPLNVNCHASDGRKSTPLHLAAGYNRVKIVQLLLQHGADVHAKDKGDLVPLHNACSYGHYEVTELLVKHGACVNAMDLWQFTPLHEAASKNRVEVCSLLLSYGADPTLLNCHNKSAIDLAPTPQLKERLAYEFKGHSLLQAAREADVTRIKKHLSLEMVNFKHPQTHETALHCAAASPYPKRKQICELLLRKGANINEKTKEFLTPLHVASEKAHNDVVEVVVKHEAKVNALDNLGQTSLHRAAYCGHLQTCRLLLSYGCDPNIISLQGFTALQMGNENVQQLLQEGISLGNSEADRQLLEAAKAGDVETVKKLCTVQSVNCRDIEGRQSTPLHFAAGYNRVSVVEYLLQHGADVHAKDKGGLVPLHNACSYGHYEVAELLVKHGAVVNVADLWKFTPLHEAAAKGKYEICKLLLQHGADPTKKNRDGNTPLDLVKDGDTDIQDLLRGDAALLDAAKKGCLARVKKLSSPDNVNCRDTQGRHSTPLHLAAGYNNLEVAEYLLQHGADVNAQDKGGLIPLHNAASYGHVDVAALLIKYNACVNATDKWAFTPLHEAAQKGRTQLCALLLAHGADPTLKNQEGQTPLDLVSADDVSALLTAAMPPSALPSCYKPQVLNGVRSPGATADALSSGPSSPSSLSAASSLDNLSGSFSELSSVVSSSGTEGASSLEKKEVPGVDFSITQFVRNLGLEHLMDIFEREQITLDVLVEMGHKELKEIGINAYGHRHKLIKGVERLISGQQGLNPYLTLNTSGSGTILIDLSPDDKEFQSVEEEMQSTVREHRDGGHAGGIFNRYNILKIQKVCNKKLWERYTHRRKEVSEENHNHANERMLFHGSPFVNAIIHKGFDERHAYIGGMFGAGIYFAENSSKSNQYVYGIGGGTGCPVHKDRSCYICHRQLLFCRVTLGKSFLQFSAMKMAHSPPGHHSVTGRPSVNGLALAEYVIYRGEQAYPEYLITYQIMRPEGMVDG

In data set [4] the test system is PORCN.

Sequence of Smo heptahelical domain (Q99835 28-787): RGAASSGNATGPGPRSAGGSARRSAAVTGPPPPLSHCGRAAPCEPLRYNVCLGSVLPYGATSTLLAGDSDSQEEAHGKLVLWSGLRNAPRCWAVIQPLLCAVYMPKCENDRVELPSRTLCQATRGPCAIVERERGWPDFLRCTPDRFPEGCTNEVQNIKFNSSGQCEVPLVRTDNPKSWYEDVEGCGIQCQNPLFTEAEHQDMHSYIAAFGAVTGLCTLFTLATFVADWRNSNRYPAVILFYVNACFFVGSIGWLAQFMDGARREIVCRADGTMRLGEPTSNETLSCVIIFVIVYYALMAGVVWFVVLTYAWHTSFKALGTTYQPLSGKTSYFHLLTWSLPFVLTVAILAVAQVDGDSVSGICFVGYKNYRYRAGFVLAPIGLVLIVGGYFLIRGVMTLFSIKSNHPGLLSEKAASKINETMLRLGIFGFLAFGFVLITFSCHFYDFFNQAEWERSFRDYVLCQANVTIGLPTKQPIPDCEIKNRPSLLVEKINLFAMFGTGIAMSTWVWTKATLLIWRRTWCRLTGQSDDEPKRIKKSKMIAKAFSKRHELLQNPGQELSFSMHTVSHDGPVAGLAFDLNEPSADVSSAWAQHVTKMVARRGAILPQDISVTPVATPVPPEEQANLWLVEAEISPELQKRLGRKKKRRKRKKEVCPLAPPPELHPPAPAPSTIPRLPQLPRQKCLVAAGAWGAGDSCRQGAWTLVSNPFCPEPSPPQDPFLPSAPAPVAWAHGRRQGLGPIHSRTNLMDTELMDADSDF
Sequence of element-binding protein (CBP) (Q92793 whole entry, the tested form may be a part): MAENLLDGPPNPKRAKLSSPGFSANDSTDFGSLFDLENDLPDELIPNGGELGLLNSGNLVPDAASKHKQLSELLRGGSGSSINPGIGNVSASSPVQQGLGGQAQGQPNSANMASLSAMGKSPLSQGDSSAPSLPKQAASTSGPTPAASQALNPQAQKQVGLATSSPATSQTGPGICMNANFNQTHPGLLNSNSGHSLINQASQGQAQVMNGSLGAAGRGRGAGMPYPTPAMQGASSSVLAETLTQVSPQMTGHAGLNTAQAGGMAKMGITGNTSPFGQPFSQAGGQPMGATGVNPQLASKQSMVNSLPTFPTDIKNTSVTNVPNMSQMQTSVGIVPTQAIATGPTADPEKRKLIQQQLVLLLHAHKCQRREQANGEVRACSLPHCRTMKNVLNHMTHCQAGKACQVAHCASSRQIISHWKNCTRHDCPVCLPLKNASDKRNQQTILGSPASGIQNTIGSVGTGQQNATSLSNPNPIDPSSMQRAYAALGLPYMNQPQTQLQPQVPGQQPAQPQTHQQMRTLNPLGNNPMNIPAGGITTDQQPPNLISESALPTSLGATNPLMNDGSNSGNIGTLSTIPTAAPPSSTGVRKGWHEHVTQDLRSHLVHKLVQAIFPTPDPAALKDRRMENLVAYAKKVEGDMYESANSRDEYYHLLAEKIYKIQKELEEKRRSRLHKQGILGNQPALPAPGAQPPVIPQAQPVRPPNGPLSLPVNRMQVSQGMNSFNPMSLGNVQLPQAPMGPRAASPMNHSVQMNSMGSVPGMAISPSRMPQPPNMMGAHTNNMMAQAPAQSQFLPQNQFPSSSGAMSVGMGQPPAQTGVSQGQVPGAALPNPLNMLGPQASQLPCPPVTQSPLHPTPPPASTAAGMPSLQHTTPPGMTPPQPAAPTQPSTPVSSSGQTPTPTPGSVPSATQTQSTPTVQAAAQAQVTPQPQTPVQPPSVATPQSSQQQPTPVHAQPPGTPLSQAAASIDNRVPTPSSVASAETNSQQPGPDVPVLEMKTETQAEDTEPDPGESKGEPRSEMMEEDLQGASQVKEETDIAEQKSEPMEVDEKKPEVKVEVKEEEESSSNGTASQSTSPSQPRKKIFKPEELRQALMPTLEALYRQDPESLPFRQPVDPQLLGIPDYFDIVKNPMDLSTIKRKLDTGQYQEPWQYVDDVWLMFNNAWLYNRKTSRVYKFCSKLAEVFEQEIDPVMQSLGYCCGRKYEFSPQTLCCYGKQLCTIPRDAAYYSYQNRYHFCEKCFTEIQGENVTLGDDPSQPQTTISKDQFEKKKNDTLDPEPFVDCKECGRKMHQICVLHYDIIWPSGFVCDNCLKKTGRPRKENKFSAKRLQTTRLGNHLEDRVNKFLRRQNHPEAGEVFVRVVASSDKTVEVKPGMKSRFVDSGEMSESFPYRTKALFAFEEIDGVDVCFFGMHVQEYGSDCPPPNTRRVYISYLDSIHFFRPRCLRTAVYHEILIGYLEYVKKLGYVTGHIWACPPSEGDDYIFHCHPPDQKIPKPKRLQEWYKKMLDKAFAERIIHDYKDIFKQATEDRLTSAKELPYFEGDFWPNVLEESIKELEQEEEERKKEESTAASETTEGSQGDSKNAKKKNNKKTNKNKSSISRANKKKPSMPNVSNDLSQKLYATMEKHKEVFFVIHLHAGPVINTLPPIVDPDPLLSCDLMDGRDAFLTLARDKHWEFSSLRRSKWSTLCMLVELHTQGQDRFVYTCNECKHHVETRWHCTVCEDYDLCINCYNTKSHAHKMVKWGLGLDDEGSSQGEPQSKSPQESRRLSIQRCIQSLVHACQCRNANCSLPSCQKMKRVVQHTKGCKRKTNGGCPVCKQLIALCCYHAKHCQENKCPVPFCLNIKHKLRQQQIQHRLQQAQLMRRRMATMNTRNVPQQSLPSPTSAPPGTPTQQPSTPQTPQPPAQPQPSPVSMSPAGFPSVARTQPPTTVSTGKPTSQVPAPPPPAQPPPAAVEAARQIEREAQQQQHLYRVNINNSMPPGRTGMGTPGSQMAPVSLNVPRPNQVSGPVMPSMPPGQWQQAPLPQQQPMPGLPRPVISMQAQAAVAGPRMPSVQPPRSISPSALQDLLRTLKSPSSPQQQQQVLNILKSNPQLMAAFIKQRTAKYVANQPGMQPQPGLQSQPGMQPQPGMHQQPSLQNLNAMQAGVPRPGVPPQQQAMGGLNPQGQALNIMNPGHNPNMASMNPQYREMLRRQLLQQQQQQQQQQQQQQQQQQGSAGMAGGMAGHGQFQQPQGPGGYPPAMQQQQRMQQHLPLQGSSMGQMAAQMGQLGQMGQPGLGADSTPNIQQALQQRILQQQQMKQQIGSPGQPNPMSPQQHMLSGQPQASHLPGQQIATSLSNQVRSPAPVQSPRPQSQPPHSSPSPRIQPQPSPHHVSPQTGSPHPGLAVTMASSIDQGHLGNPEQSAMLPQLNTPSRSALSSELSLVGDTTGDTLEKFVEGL

Consider `O=C1[C@H](Cc2ccc(O)cc2)N2C(=O)CCN(C(=O)NCc3ccccc3)[C@H]2CN1Cc1cccc2ccccc12` [ICG-001], for which the IC50 in data set [1] was 3000 nM.

On to `CNC1CCC(N(Cc2cccc(-c3ccncc3)c2)C(=O)c2sc3ccccc3c2Cl)CC1` (stereo not shown) [SAG], for which the Kd at Smo heptahelical domain was 59 nM.

For the compound `Cc1cc(-c2ncc(CC(=O)Nc3ccc(-c4cnccn4)cn3)cc2C)ccn1` [LGK-974], the IC50 with Wnt signaling is 0.4 nM.

With `Cc1cc(-c2ccc(CC(=O)Nc3ccc(-c4cccnc4)cc3)cc2)ccn1` [Wnt-C59], in the data set on PORCN [2], the IC50 was 0.074 nM.

For `Cc1ccc2nc(NC(=O)CSc3nc4c(c(=O)n3-c3ccccc3)SCC4)sc2c1` [IWP-2], the IC50 in data set [3] was 27 nM.

For `COc1ccc(-n2c(SCCCN3C(=O)c4cccc5cccc(c45)C3=O)nnc2-c2ccncc2)cc1` [WIKI4], the IC50 at TNKS2 is 15 nM.

Consider `O=C(CSc1nc2c(c(=O)n1-c1ccccc1)SCC2)Nc1ccc(-c2ccccc2)cn1` [IWP-L6], for which, in the data set on PORCN [4], the EC50 was 0.5 nM.

The IC50 is the concentration that inhibits the measured activity by half. The Kd is the constant that tells how readily two partners part at equilibrium. As usually defined, the EC50 is the concentration at which the effect is half-maximal.
